Experimental data from patent US20240376122A1, “SMALL MOLECULE COMPOUNDS” (APERTOR PHARMACEUTICALS, INC., priority 2021, published 2024).

How the values were obtained:
[1] = test system: Saccharomyces cerevisiae BY4742; test: Anti-yeast activity assay (minimum inhibitory concentration); type: cell-based; conditions: YPD media, 96-well plates, 30° C. for 16 hours without shaking, lowest concentration with no obvious culture growth, triplicate, read-out: MIC against Saccharomyces cerevisiae BY4742
Procedure: A single colony of Saccharomyces cerevisiae BY4742 was inoculated into 2 mL YPD media in a 5 mL falcon tube to grow overnight at 30° C. The overnight culture was inoculated into 5 mL YPD media in a glass tube at OD600-0.1, and the new culture was grown at 30° C. until OD600 reached 0.5. The culture was then diluted to OD600-0.01 and aliquoted into 96-well plates at 100 μL per well. The compound was dissolved in ethanol at 75 μM. Three-fold serial dilutions were conducted for the Compound 10 times using ethanol, respectively. 4 μL of each concentration compound solution was added and mixed with 384 μL YPD media. 100 μL of the YPD media solutions were mixed with the Saccharomyces cerevisiae cultures in 96-well plates by pipette, respectively. The plates were incubated at 30° C. for 16 hours without shaking. The lowest Compound concentrations in wells that have no obvious culture growth were defined as the minimum inhibitory concentrations (MICs). The assays were conducted in triplicate.

[2] = observed in humans; cited from earlier work

SMILES | MIC [1] [µM] | terminal half-life [2] [h]
CO[C@@H]1/C(C)=C/C=C/C=C/[C@@H](C)C[C@@H](C)C(=O)[C@H](OC)[C@H](O)/C(C)=C/[C@@H](C)C(=O)C[C@@H]([C@H](C)C[C@@H]2CC[C@@H](O)[C@H](OC)C2)OC(=O)[C@@H]2CCCCN2C(=O)C(=O)[C@]2(O)O[C@@H](CC[C@H]2C)[C@H]1C (single isomer, unassigned) [Compound 15] | < 0.0556 | –
CO[C@H]1C[C@@H]2CC[C@@H](C)[C@@](O)(O2)C(=O)C(=O)N2CCCC[C@H]2C(=O)O[C@H]([C@H](C)C[C@@H]2CC[C@@H](O)[C@H](OC)C2)CC(=O)[C@H](C)/C=C(\C)[C@@H](O)[C@@H](OC)C(=O)[C@H](C)C[C@H](C)/C=C/C=C/C=C/1C [rapamycin] | – | 24 to 48
